Among the data in ChEMBL document CHEMBL1926648, “Synthesis and biological activity of dihydroimidazole and 3,4-dihydrobenzo[4,5]imidazo[1,2-a][1,3,5]triazins” (2012) are zone of inhibition values, retold here.

Common to all, as to format: functional
Conditions in all cases: read-out: IZ

Assay [1] relates to Bacillus cereus. Kind of assay: Antibacterial activity against Bacillus cereus at 10000 ppm after 24 hrs by agar diffusion method.
Assay [2] has as its system Bacillus cereus. Kind of assay: Antibacterial activity against Bacillus cereus at 30000 ppm after 24 hrs by agar diffusion method. On the technique in general: A growth-free zone around the sample is the usual read-out of agar diffusion tests.
The test system of assay [3] is Bacillus cereus. Briefly: Antibacterial activity against Bacillus cereus at 50000 ppm after 24 hrs by agar diffusion method.
For assay [4], the system named is Bacillus subtilis. Kind of assay: Antibacterial activity against Bacillus subtilis at 10000 ppm after 24 hrs by agar diffusion method.
Assay [5] deals with Bacillus subtilis. Kind of assay: Antibacterial activity against Bacillus subtilis at 30000 ppm after 24 hrs by agar diffusion method.
The test system of assay [6] is Bacillus subtilis. Kind of assay: Antibacterial activity against Bacillus subtilis at 50000 ppm after 24 hrs by agar diffusion method.
Assay [7] concerns Escherichia coli. Briefly: Antibacterial activity against Escherichia coli at 10000 ppm after 24 hrs by agar diffusion method.
The subject of assay [8] is Escherichia coli. Briefly: Antibacterial activity against Escherichia coli at 30000 ppm after 24 hrs by agar diffusion method.
Assay [9] relates to Escherichia coli. Kind of assay: Antibacterial activity against Escherichia coli at 50000 ppm after 24 hrs by agar diffusion method.
Assay [10] concerns Micrococcus luteus. Kind of assay: Antibacterial activity against Micrococcus luteus at 10000 ppm after 24 hrs by agar diffusion method.
In assay [11] the test system is Micrococcus luteus. Kind of assay: Antibacterial activity against Micrococcus luteus at 30000 ppm after 24 hrs by agar diffusion method.
Assay [12] has as its system Micrococcus luteus. Briefly: Antibacterial activity against Micrococcus luteus at 50000 ppm after 24 hrs by agar diffusion method.
Assay [13] relates to Staphylococcus aureus. Briefly: Antibacterial activity against Staphylococcus aureus at 10000 ppm after 24 hrs by agar diffusion method.
Assay [14] deals with Staphylococcus aureus. Kind of assay: Antibacterial activity against Staphylococcus aureus at 30000 ppm after 24 hrs by agar diffusion method.
Assay [15] relates to Staphylococcus aureus. Kind of assay: Antibacterial activity against Staphylococcus aureus at 50000 ppm after 24 hrs by agar diffusion method.
Assay [16] relates to Pseudomonas aeruginosa. Briefly: Antibacterial activity against Pseudomonas aeruginosa at 10000 ppm after 24 hrs by agar diffusion method.
Assay [17] concerns Pseudomonas aeruginosa. Briefly: Antibacterial activity against Pseudomonas aeruginosa at 30000 ppm after 24 hrs by agar diffusion method.
For assay [18], the system named is Pseudomonas aeruginosa. Briefly: Antibacterial activity against Pseudomonas aeruginosa at 50000 ppm after 24 hrs by agar diffusion method.
Assay [19] has as its system Kocuria rosea. Briefly: Antibacterial activity against Micrococcus roseus at 10000 ppm after 24 hrs by agar diffusion method.
Assay [20] relates to Kocuria rosea. Kind of assay: Antibacterial activity against Micrococcus roseus at 30000 ppm after 24 hrs by agar diffusion method.
For assay [21], the system named is Kocuria rosea. Kind of assay: Antibacterial activity against Micrococcus roseus at 50000 ppm after 24 hrs by agar diffusion method.

For the compound `N#Cc1[nH]/c(=N/c2nc3ccccc3[nH]2)[nH]c1N`, the zone of inhibition at 10000 ppm in the assay with Bacillus cereus [1] is 6 mm; in the assay on Bacillus subtilis [4] it was 8 mm; in the assay on Escherichia coli [7], 8 mm; in the assay with Micrococcus luteus [10] it was 4 mm; in the assay on Staphylococcus aureus [13] it was 3 mm; in the assay with Pseudomonas aeruginosa [16], 6 mm. In the assay with Kocuria rosea [19], the zone of inhibition at 10000 ppm stood at 4 mm. Besides, the zone of inhibition at 30000 ppm in the assay on Bacillus cereus [2] turned out to be 10 mm; in the assay on Bacillus subtilis [5], 11 mm; in the assay with Escherichia coli [8] it was 13 mm; in the assay with Micrococcus luteus [11], 7 mm; with Staphylococcus aureus [14] it was 7 mm; in the assay on Pseudomonas aeruginosa [17], 8 mm. Further, in the assay on Kocuria rosea [20], the zone of inhibition at 30000 ppm was determined as 7 mm. Moreover, the zone of inhibition at 50000 ppm in the assay with Bacillus cereus [3] is 14 mm; in the assay with Bacillus subtilis [6] it was 16 mm; in the assay on Escherichia coli [9] it was 19 mm; with Micrococcus luteus [12] it was 9 mm; in the assay on Staphylococcus aureus [15], 7 mm; in the assay with Pseudomonas aeruginosa [18], 9 mm. Besides, in the assay on Kocuria rosea [21], the zone of inhibition at 50000 ppm was found to be 9 mm.
Take `NC1=Nc2nc3ccccc3n2C2(NC(=O)CS2)N1` (stereo not given): the zone of inhibition at 10000 ppm was determined as 6 mm in the assay on Bacillus cereus [1]; 9 mm in the assay with Bacillus subtilis [4]; 3 mm in the assay with Staphylococcus aureus [13]; 5 mm in the assay on Pseudomonas aeruginosa [16]; 4 mm in the assay on Kocuria rosea [19]. Also, the zone of inhibition at 30000 ppm in the assay with Bacillus cereus [2] amounted to 8 mm; in the assay on Bacillus subtilis [5], 13 mm; with Escherichia coli [8] it was 5 mm; in the assay on Micrococcus luteus [11] it was 3 mm; with Staphylococcus aureus [14], 5 mm; in the assay with Pseudomonas aeruginosa [17], 8 mm. For the same compound, the zone of inhibition at 30000 ppm with Kocuria rosea [20] is 7 mm. Besides, the zone of inhibition at 50000 ppm in the assay on Bacillus cereus [3] was 11 mm; in the assay on Bacillus subtilis [6], 16 mm; in the assay on Escherichia coli [9] it was 8 mm; with Micrococcus luteus [12], 7 mm; with Staphylococcus aureus [15] it was 8 mm; in the assay on Pseudomonas aeruginosa [18] it was 11 mm. In the assay on Kocuria rosea [21], the zone of inhibition at 50000 ppm is 10 mm.
